# Measurements: patent publication US6750348B1, “Chemokine receptor binding heterocyclic compounds” (AnorMED, Inc., priority 1999, dated 2004)
# Like-named read-outs stand apart in the source and are kept apart here.
# Legend:
# Type in all cases: cell-based
# HIV-1 NL4.3 or IIIB = test: Inhibition of HIV-1 (NL4.3 or IIIB) replication in MT-4 cells (MTT); settings: Human immunodeficiency virus 1, IIIB
# Description: Compounds were tested for their ability to inhibit HIV-1 replication in MT-4 cells or PBMC's (peripheral blood mononucleocytes) using published procedures (for example, see: Labrosse et al. J. Virol. 1998, 6381-6388; Simmons et al. J. Virol. 1998, 8453-8457; Donzella et al. Nature Medicine 1998, 72-77; Schols et al. J. Exp. Med. 1997, 1383-1388; De Clercq et al. Antiviral Res. 1997, 147-156; and Bridger et al. U.S. patent application Ser. No. 09/111,895). In addition to the above references, experimental methods for performing anti-viral assays can also be found in: Bridger et al. J. Med. Chem. 1995, 38, 366-378; Bridger et al. J. Med. Chem. 1996, 39, 109-119; Bridger et al. U.S. Pat. No. 5,698,546; Bridger et al. U.S. Pat. No. 5,583,131; Bridger et al. U.S. Pat. No. 5,817,807; De Clercq et al. Antimicrob. Agents and Chemother. 1994, 38, 668-674.
# 1. The HIV-1 strains NL4.3 and IIIB are T-tropic strains that exclusively use CXCR4 as the co-receptor for entry into cells. MT-4 Cells express CXCR4 but not CCR5.
# Inhibition of HIV-1 NL4.3 (or IIIB) replication assays were performed as previously described (Bridger et al. J. Med. Chem. 1999, 42, 3971-3981; De Clercq et al. Proc. Natl. Acad. Sci, 1992, 89, 5286-5290; De Clercq et al. Antimicrob. Agents Chemother. 1994, 38, 668-674; Bridger et al. J. Med. Chem. 1995, 38, 366-378). Anti-HIV activity and cytotoxicity measurements were carried out in parallel. They were based on the viability of MT-4 cells that had been infected with HIV in the presence of various concentrations of the test compounds. After the MT-4 cells were allowed to proliferate for 5 days, the number of viable cells was quantified by a tetrazolium-based calorimetric 3-(4,5-dimethylthiazol-2-yl)-2,5-diphenyltetrazolium bromide (MTT) procedure in 96-well microtrays. In all of these assays, viral input (viral multiplicity of infection, MOI) was 0.01, or 100 times the 50% cell culture infective dose (CCID50). The EC50 was defined as the concentration required to protect 50% of the virus-infected cells against viral cytopathicity.
# [1] = tested on: SDF-1α induced Ca flux in SUP-T1 cells; test: Inhibition of SDF-1α induced Ca flux in SUP-T1 cells (FLIPR); settings: Homo sapiens, read-out: inhibited SDF-1α induced Ca flux; for inhibition at 20 µg/mL: at 20 μg/mL
# Description: (§1) Loading dye: Fluo-3, AM (Molecular Probes F-1241) is dissolved in anhydrous DMSO and stored frozen in aliquots. To increase the solubility of the dye in the loading medium, 10% (w/v) pluronic acid (Molecular Probes F-127) is added to the Fluo-3 stock solution immediately before use.
# (§2) HBSS+20 mM Hepes buffer+0.2% BSA, pH 7.4. HBSS 10× [(w/o phenol red and sodium bicarbonate (Gibco 14 065-049)]; Hepes buffer 1M (Gibco 15 630-056), BSA (Sigma A3675). The flux buffer is vacuum-filtered and stored refrigerated for a maximum of 5 days. Before use in the experiment, the buffer is warmed at 37° C. in a waterbath.
# (§3) The test compounds were diluted in flux buffer and added to 4 wells of a black microplate (4 parallel measurements per compound).
# (§4) The chemokines are diluted in flux buffer to concentrations that are 4-fold higher than the desired concentrations required for stimulation of the cells (i.e. 2.5 nM for SDF-1α and 0.6 nM for RANTES). The chemokines were added to untreated 96-well Sero well compound plates (International Medical, Sterilin code 611F96). In the negative control well's (baseline monitoring), flux buffer is added instead of chemokine. As a positive control to check for dye loading efficiency, 20 μM digitonin (final concentration) was also included. The agonist plate was incubated in the FLIPR (37° C.) for 15-30 min.
# SUP-T1 cells were centrifuged at room temperature (RT) and re-suspended in loading medium (RPMI-1640 containing 2% FBS and 4 μM Fluo-3, AM). The cells were incubate at room temperature for 45 min. then washed twice in flux buffer then incubated in flux buffer at room temperature for 10 min. The cells were centrifuged and re-suspended in flux buffer at a density of 3×10^6 cells per mL. […] The microplate is then gently centrifuged at room temperature. Homogeneous spreading of the cells on the bottom of the microplate wells was then confirmed with a microscope and the microplate was incubated in the FLIPR (37° C.) for 10 min. prior to testing.
# (§5) The FLIPR settings (camera exposure time and laser power) are adjusted to obtain initial fluorescence values between 8,000 and 10,000 units. After monitoring a 20 second-baseline, the agonist (chemokine) (50 μL) is added by automatic pipettor with black pipette tips. Fluorescence is measured simultaneously in all wells of the microplate every 2 seconds (first 2 min) and thereafter every 6 seconds (additional 2 min). The average ca-flux measured in each set of 4 identical wells (one test compound) was calculated by the FLIPR software.
# The compounds of the current invention were tested for inhibition of SDF-1α induced Ca flux in SUP-T1 cells using the method described above.
# [2] = tested on: RANTES induced Ca flux in U87.CCR5 cells; test: Inhibition of RANTES induced Ca flux in U87.CCR5 cells (FLIPR); settings: read-out: inhibited RANTES induced Ca flux; for inhibition at 20 µM: U-87-CCR5, at 20 μM; for inhibition at 20 µg/mL: U-87-CCR5, at 20 μg/mL
# Description: as §1, §2, §3, §4, §5
# U87.CCR5 cells were seeded into the black microplates (Costar 3603) on the day before the experiment. The culture medium was removed from the cells and 100 μL of loading medium (DMEM+10% FBS+4 μM Fluo-3, AM) was added to each well and the plate was incubate at 37° C. for 45 min. The loading medium was then removed an the cells were washed twice with flux buffer using the CELL WASH microplate washer (Labsystems) followed by incubation in flux buffer for 10 min. at room temperature (the washing procedure was repeated twice). Finally, the wash buffer was removed from the microplate wells and 150 μL of the test compound, diluted in flux buffer to the desired concentration. The microplate was then incubated in the FLIPR drawer for 10 min. prior to testing. Measurements were performed as described above.
# The compounds of the current invention were tested for inhibition of RANTES induced Ca flux in U87.CCR5 cells.
# [3] = MT4, read-out: EC50, inhibition of HIV-1 NL4.3 or IIIB replication
EC50 (HIV-1 NL4.3 or IIIB; [3]) [µg/mL],Compound,inhibition at 20 µg/mL [1] [%],further results
< 20,"N=C(N)NCCN(Cc1ccc(CNCc2ccccn2)cc1)C1CCCc2cccnc21 (stereo not shown) [Example 51, N-(2-pyridinylmethyl)-N′-(2-guanidinoethyl)-N′-(5,6,7,8-tetrahydro-8-quinolinyl)-1,4-benzenedimethanamine]",> 20,
< 20,"c1ccc(CNCc2ccc(CN(Cc3ccccn3)C3CCc4cccnc43)cc2)nc1 (stereo not shown) [Example 86, N,N′-bis(2-pyridinylmethyl)-N′-(6,7-dihydro-5H-cyclopenta[b]pyridin-7-yl)-1,4-benzenedimethanamine]",> 20,
,"c1ccc(CCN(Cc2cccc(CNCc3ccccn3)c2)Cc2ccccn2)cc1 [Example 109, N-[-(phenyl)ethyl]-N,N′-bis(2-pyridinylmethyl)-1,3-benzenedimethanamine]",,inhibition at 20 µM [2]: > 20%
,"c1ccc(CN2CCC(N(CCc3ccccn3)Cc3cccc(CNCc4ccccn4)c3)C2)cc1 (stereo not shown) [Example 179, N-[1-(benzyl)-3-pyrrolidinyl]-N-[2-(2-pyridinyl)ethyl]-N′-(2-pyridinylmethyl)-1,3-benzenedimethanamine]",,inhibition at 20 µM [2]: > 20%
< 20,"c1ccc(CNCc2ccc(CN(Cc3ccccn3)C3CCCCc4cccnc43)cc2)nc1 (stereo not shown) [Example 85, N,N′-bis(2-pyridinylmethyl)-N′-(6,7,8,9-tetrahydro-5H-cyclohepta[b]pyridin-9-yl)-1,4-benzenedimethanamine]",> 20,
< 20,"c1ccc(CNCc2ccc(CN(Cc3ccccn3)CC3CCc4cccnc43)cc2)nc1 (stereo not shown) [Example 89, N,N′-bis(2-pyridinylmethyl)-N′[(6,7-dihydro-5H-cyclopenta[b]pyridin-7-yl)methyl]-1,4-benzenedimethanamine]",> 20,
< 20,"O=C(NCCN(Cc1ccc(CNCc2ccccn2)cc1)C1CCCc2cccnc21)Nc1ccccc1 (stereo not shown) [Example 55, N-(2-pyridinylmethyl)-N′-[2-(phenylureido)ethyl]-N′-(5,6,7,8-tetrahydro-8-quinolinyl)-1,4-benzenedimethanamine]",> 20,
< 20,"c1ccc(CNCc2ccc(CN(Cc3nccs3)C3CCCc4cccnc43)cc2)nc1 (stereo not shown) [Example 28, N-(2-pyridinylmethyl)-N′-[2-thiazolylmethyl]-N′-(5,6,7,8-tetrahydro-8-quinolinyl)-1,4-benzenedimethanamine]",> 20,
< 20,"c1ccc(CNCc2ccc(CNC3CCc4cccnc4C3)cc2)nc1 (stereo not shown) [Example 45, N-(2-pyridinylmethyl)-N′-(5,6,7,8-tetrahydro-7-quinolinyl)-1,4-benzenedimethanamine]",> 20,
< 20,"c1ccc(CNCc2ccc(CN(Cc3ncc[nH]3)C3CCCc4cccnc43)cc2)nc1 (stereo not shown) [Example 15, N-(2-pyridinylmethyl)-N′-(1H-imidazol-2-ylmethyl)-N′-(5,6,7,8-tetrahydro-8-quinolinyl)-1,4-benzenedimethanamine]",> 20,
,"Cc1nc[nH]c1CN(Cc1ccc(CNCc2ccccn2)cc1)Cc1ccccn1 [Example 166, N-[(4-methyl)-1H-imidazol-5-ylmethyl]-N,N′-bis(2-pyridinylmethyl)-1,4-benzenedimethanamine]",,"EC50 (HIV-1 NL4.3 or IIIB; MT4, read-out: EC50, inhibition of HIV-1 NLA.3 or IIIB replication): < 20 µM; inhibition at 20 µM ([1]; at 20 μM): > 20%"
< 20,"CC(C)CNCCN(Cc1ccc(CNCc2ccccn2)cc1)C1CCCc2cccnc21 (stereo not shown) [Example 48, N-(2-pyridinylmethyl)-N′-[2-(isobutylamino)ethyl]-N′-(5,6,7,8-tetrahydro-8-quinolinyl)-1,4-benzenedimethanamine]",> 20,
,"c1ccc(CNCc2cccc(CN(Cc3ccccn3)Cn3ccnc3)c2)nc1 [Example 118, N-[1H-imidazol-1-ylmethyl]-N,N′-bis(2-pyridinylmethyl)-1,3-benzenedimethanamine]",,inhibition at 20 µM [2]: > 20%
< 20,"Fc1cccc2c1CC(N(Cc1ccc(CNCc3ccccn3)cc1)Cc1ncc[nH]1)CC2 (stereo not shown) [Example 44, N-(2-pyridinylmethyl)-N′-(1H-imidazol-2-ylmethyl)-N′-(8-Fluoro-1,2,3,4-tetrahydro-2-naphthalenyl)-1,4-benzenedimethanamine]",,inhibition at 20 µg/mL [2]: > 20%
,"c1ccc(CNCc2ccc(CN(Cc3cc[nH]n3)C3CCCc4cccnc43)cc2)nc1 (stereo not shown) [Example 25, N-(2-pyridinylmethyl)-N′-[3-pyrazolylmethyl]-N′-(5,6,7,8-tetrahydro-8-quinolinyl)-1,4-benzenedimethanamine]",,inhibition at 20 µg/mL [2]: > 20%
< 20,"Oc1cccc2c1CC(NCc1ccc(CNCc3ccccn3)cc1)CC2 (stereo not shown) [Example 41, N-(2-pyridinylmethyl)-N′-(8-hydroxy-1,2,3,4-tetrahydro-2-naphthalenyl)-1,4-benzenedimethanamine]",> 20,
< 20,"c1ccc(CNCc2ccc(CN(Cc3ccc4ccccc4n3)C3CCCc4cccnc43)cc2)nc1 (stereo not shown) [Example 18, N-(2-pyridinylmethyl)-N′-(2-quinolinylmethyl)-N′-(5,6,7,8-tetrahydro-8-quinolinyl)-1,4-benzenedimethanamine]",> 20,
< 20,"COc1ccc2c(c1)CC(NCc1ccc(CNCc3ccccn3)cc1)CC2 (stereo not shown) [Example 35, N-(2-pyridinylmethyl)-N′-(7-methoxy-1,2,3,4-tetrahydro-2-naphthalenyl)-1,4-benzenedimethanamine]",> 20,
< 20,"c1ccc(CNCc2ccc(CN(Cc3ccccn3)C3CCCc4cccnc43)cc2)nc1 (stereo not shown) [Example 84, N,N′-bis(2-pyridinylmethyl)-N′-(5,6,7,8-tetrahydro-8-quinolinyl)-1,4-benzenedimethanamine]",> 20,
